{
  "source": "patent US20100267561A1",
  "about": "“HERBICIDAL PYRIDAZINONE DERIVATIVES” (priority 2007, published 2010)",
  "assay_type_in_all_cases": "in vivo",
  "key": {"[1]": {"tested_on": "barnyardgrass (Echinochloa crus-galli)", "experiment": "Test A pre-/postemergence plant response", "procedure,_shortened": "(§1)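 Seeds in loam soil/sand blend treated preemergence by directed soil spray, with simultaneous postemergence spray on 2–10 cm plants at one- to two-leaf stage; compounds in non-phytotoxic solvent with surfactant. Injury visually rated versus untreated controls after about 10 days in greenhouse, 0 (no effect) to 100 (complete control).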"}, "corn (Zea mays)": {"tested_on": "corn (Zea mays)", "experiment": "Test A pre-/postemergence plant response", "procedure,_shortened": "as §1"}, "[2]": {"tested_on": "giant foxtail (Setaria faberi)", "experiment": "Test A pre-/postemergence plant response", "procedure,_shortened": "as §1"}, "[3]": {"tested_on": "large crabgrass (Digitaria sanguinalis)", "experiment": "Test A pre-/postemergence plant response", "procedure,_shortened": "as §1"}, "[4]": {"tested_on": "morningglory (Ipomoea coccinea)", "experiment": "Test A pre-/postemergence plant response", "procedure,_shortened": "as §1"}, "[5]": {"tested_on": "pigweed (Amaranthus retroflexus)", "experiment": "Test A pre-/postemergence plant response", "procedure,_shortened": "as §1"}, "[6]": {"tested_on": "velvetleaf (Abutilon theophrasti)", "experiment": "Test A pre-/postemergence plant response", "procedure,_shortened": "as §1"}, "[7]": {"tested_on": "wheat (Triticum aestivum)", "experiment": "Test A pre-/postemergence plant response", "procedure,_shortened": "as §1"}, "[8]": {"tested_on": "canarygrass (Phalaris minor)", "experiment": "Test B postemergence plant response", "conditions": "for Plant response rating, Canarygrass: Postemergence, scale 0 to 100", "procedure,_shortened": "(§2)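 Postemergence greenhouse test; plants at 2 to 18 cm (1- to 4-leaf stage) given formulated test chemical, held 13 to 15 days, then visually rated against untreated controls on a 0 (no effect) to 100 (complete control) scale; dash means no result.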"}, "[9]": {"tested_on": "chickweed (Stellaria media)", "experiment": "Test B postemergence plant response", "conditions": "for Plant response rating, Chickweed: Postemergence", "procedure,_shortened": "as §2"}, "[10]": {"tested_on": "windgrass (Apera spica-venti)", "experiment": "Test B postemergence plant response", "conditions": "for Plant response rating, Windgrass: Postemergence", "procedure,_shortened": "as §2"}, "[11]": {"tested_on": "winter barley (Hordeum vulgare)", "experiment": "Test B postemergence plant response", "conditions": "for Plant response rating, Barley: Postemergence, scale 0 to 100, 0 no effect, 100 complete control", "procedure,_shortened": "as §2"}, "[12]": {"tested_on": "barnyardgrass (Echinochloa crus-galli)", "experiment": "Test B flooded paddy test plant response", "procedure,_shortened": "(§3)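 Step one: raise plants to 2 leaves. Step two: flood pots 3 cm over the soil and apply compound into the water, keeping this depth. Step three: after 13–15 greenhouse days, score visually versus controls, 0–100, where 100 means complete control.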"}, "[13]": {"tested_on": "umbrella sedge (Cyperus difformis)", "experiment": "Test B flooded paddy test plant response", "procedure,_shortened": "as §3"}, "[14]": {"conditions": "Postemergence, 31 g ai/ha, 0 to 100 scale (0 no effect, 100 complete control)"}, "[15]": {"conditions": "Postemergence, 125 g ai/ha, 0 to 100 scale, 0 no effect, 100 complete control"}, "[16]": {"conditions": "Preemergence, 31 g ai/ha, 0 to 100 scale, 0 is no effect, 100 is complete control"}, "[17]": {"conditions": "Preemergence, 125 g ai/ha, 0 to 100 scale (0 no effect, 100 complete control)"}, "[18]": {"conditions": "8 g ai/ha, postemergence, 0-100 scale"}, "[19]": {"conditions": "62 g ai/ha, scale 0 to 100, 0 no effect, 100 complete control"}, "[20]": {"conditions": "Flood (flooded paddy test), 62 g ai/ha, scale 0 to 100, 0 no effect, 100 complete control"}, "[21]": {"conditions": "Flood (flooded paddy test), 125 g ai/ha, scale 0 to 100, 0 no effect, 100 complete control"}, "[22]": {"conditions": "Flood (flooded paddy test), 250 g ai/ha, scale 0 to 100, 0 no effect, 100 complete control"}, "[23]": {"conditions": "Flood, 31 g ai/ha, scale 0 to 100"}},
  "data": [
    {"molecule": "Cc1cc(-c2ccc(Cl)cc2)nn1-c1c(OC(=O)c2ccccc2)cnn(C)c1=O", "note": "[Compound 48]", "values": [
      {"measurement": "Plant response rating, Barnyardgrass", "setting": "[1]; [14]", "value": 20},
      {"measurement": "Plant response rating, Barnyardgrass", "setting": "[1]; [15]", "value": 90},
      {"measurement": "Plant response rating, Barnyardgrass", "setting": "[1]; [16]", "value": 60},
      {"measurement": "Plant response rating, Barnyardgrass", "setting": "[1]; [17]", "value": 100},
      {"measurement": "Plant response rating, Corn", "setting": "corn (Zea mays); [14]", "value": 20},
      {"measurement": "Plant response rating, Corn", "setting": "corn (Zea mays); [15]", "value": 60},
      {"measurement": "Plant response rating, Corn", "setting": "corn (Zea mays); [17]", "value": 80},
      {"measurement": "Plant response rating, Foxtail, Giant", "setting": "[2]; [14]", "value": 30},
      {"measurement": "Plant response rating, Foxtail, Giant", "setting": "[2]; [15]", "value": 80},
      {"measurement": "Plant response rating, Foxtail, Giant", "setting": "[2]; [16]", "value": 90},
      {"measurement": "Plant response rating, Foxtail, Giant", "setting": "[2]; [17]", "value": 100},
      {"measurement": "Plant response rating, Crabgrass, Large", "setting": "[3]; [14]", "value": 20},
      {"measurement": "Plant response rating, Crabgrass, Large", "setting": "[3]; [15]", "value": 80},
      {"measurement": "Plant response rating, Crabgrass, Large", "setting": "[3]; [16]", "value": 60},
      {"measurement": "Plant response rating, Crabgrass, Large", "setting": "[3]; [17]", "value": 100},
      {"measurement": "Plant response rating, Morningglory", "setting": "[4]; [14]", "value": 0},
      {"measurement": "Plant response rating, Morningglory", "setting": "[4]; [15]", "value": 0},
      {"measurement": "Plant response rating, Morningglory", "setting": "[4]; [16]", "value": 0},
      {"measurement": "Plant response rating, Morningglory", "setting": "[4]; [17]", "value": 0},
      {"measurement": "Plant response rating, Pigweed", "setting": "[5]; [14]", "value": 20},
      {"measurement": "Plant response rating, Pigweed", "setting": "[5]; [15]", "value": 30},
      {"measurement": "Plant response rating, Pigweed", "setting": "[5]; [16]", "value": 0},
      {"measurement": "Plant response rating, Pigweed", "setting": "[5]; [17]", "value": 0},
      {"measurement": "Plant response rating, Velvetleaf", "setting": "[6]; [14]", "value": 20},
      {"measurement": "Plant response rating, Velvetleaf", "setting": "[6]; [15]", "value": 70},
      {"measurement": "Plant response rating, Velvetleaf", "setting": "[6]; [16]", "value": 0},
      {"measurement": "Plant response rating, Velvetleaf", "setting": "[6]; [17]", "value": 0},
      {"measurement": "Plant response rating, Wheat", "setting": "[7]; [14]", "value": 0},
      {"measurement": "Plant response rating, Wheat", "setting": "[7]; [15]", "value": 60},
      {"measurement": "Plant response rating, Wheat", "setting": "[7]; [16]", "value": 30},
      {"measurement": "Plant response rating, Wheat", "setting": "[7]; [17]", "value": 80},
      {"measurement": "Canarygrass plant response rating", "setting": "[8]; [18]", "value": 0},
      {"measurement": "Plant response rating, Canarygrass", "setting": "[8]; 16 g ai/ha", "value": 0},
      {"measurement": "Plant response rating, Canarygrass", "setting": "[8]; 31 g ai/ha", "value": 90},
      {"measurement": "Chickweed plant response rating", "setting": "[9]; [18]", "value": 0},
      {"measurement": "Plant response rating, Chickweed", "setting": "[9]; 16 g ai/ha, scale 0 to 100", "value": 0},
      {"measurement": "Plant response rating, Chickweed", "setting": "[9]; 31 g ai/ha, scale 0 to 100", "value": 0},
      {"measurement": "Plant response rating, Chickweed", "setting": "[9]; [19]", "value": 0},
      {"measurement": "Windgrass plant response rating", "setting": "[10]; [18]", "value": 0},
      {"measurement": "Plant response rating, Windgrass", "setting": "[10]; 16 g ai/ha, scale 0 to 100", "value": 40},
      {"measurement": "Plant response rating, Windgrass", "setting": "[10]; 31 g ai/ha, scale 0 to 100", "value": 60},
      {"measurement": "Plant response rating, Windgrass", "setting": "[10]; [19]", "value": 80},
      {"measurement": "Barley plant response rating", "setting": "[11]; [18]", "value": 0},
      {"measurement": "Plant response rating, Barley", "setting": "[11]; 16 g ai/ha", "value": 0},
      {"measurement": "Plant response rating, Barley", "setting": "[11]; 62 g ai/ha", "value": 10},
      {"measurement": "Plant response rating, Barnyardgrass", "setting": "[12]; [20]", "value": 0},
      {"measurement": "Plant response rating, Barnyardgrass", "setting": "[12]; [21]", "value": 0},
      {"measurement": "Plant response rating, Barnyardgrass", "setting": "[12]; [22]", "value": 30},
      {"measurement": "Plant response rating, Barnyardgrass", "setting": "[12]; [23]", "value": 0},
      {"measurement": "Plant response rating, Sedge, Umbrella", "setting": "[13]; [20]", "value": 0},
      {"measurement": "Plant response rating, Sedge, Umbrella", "setting": "[13]; [21]", "value": 0},
      {"measurement": "Plant response rating, Sedge, Umbrella", "setting": "[13]; [22]", "value": 50},
      {"measurement": "Plant response rating, Sedge, Umbrella", "setting": "[13]; [23]", "value": 0}
    ]}
  ]
}
